# US20240217957A1, “HETEROCYCLIC COMPOUND AND USE THEREOF” (TAKEDA PHARMACEUTICAL COMPANY LIMITED, priority 2022, published 2024)
# Target: T1, human OX2 receptor (Homo sapiens, UniProt O43614)
# T1 construct: expressed in transfected cells
# T1 sequence (O43614 1-444): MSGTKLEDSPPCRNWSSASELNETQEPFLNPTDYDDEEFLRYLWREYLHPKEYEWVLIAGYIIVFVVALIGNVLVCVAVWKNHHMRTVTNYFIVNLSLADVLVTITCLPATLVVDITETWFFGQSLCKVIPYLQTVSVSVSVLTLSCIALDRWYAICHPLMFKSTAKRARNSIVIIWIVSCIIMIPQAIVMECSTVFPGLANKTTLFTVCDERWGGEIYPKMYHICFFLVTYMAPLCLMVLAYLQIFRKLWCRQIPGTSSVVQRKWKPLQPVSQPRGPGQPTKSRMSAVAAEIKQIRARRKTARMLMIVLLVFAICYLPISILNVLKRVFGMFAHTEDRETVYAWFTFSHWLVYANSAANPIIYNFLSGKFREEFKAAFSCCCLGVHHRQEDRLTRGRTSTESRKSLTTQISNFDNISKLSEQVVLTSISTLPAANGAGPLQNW
# Test: Measurement of orexin type 2 receptor agonist activity (calcium fluorescence, Fluo-4 AM, FDSS)
# Format: cell-based
# Settings: compound at 3 μM; CHO cells forcibly expressing human OX2 receptor; DMSO = 0%, 10 nM orexin A (human) = 100%
# Experimental: In order to obtain cell clones that stably express human orexin type 2 receptor, human orexin type 2 (residues 1-444, NCBI Reference Sequence: AK314279) was constructed in a pcDNA3.1 (+) vector (Invitrogen) to express in mammalian cells. This plasmid DNA was transfected into CHO-K1 cells by electroporation, and stable clones were obtained by limiting dilution using resistance to G418 as a selection marker.
# CHO cells in which human OX2 receptor was forcibly expressed were seeded at 10,000 cells/well into a 384-well black transparent bottom plate (BD falcon), and were incubated at 37° C., 5% CO2 for 1 day after incubation at room temperature for 30 minutes. After removing the cell plate medium, assay buffer containing calcium indicator A (HBSS (Thermo Fisher Scientific), 20 mM HEPES (Thermo Fisher Scientific), 0.1% BSA (Sigma-Aldrich), 2.5 μg/mL Fluo-4 AM (Dojin Kagaku), 0.08% Pluronic F127 (Dojin Kagaku), 1.25 mM probenecid (Dojin Kagaku)) was added at 30 μL/well. After incubation in a 5% CO2 incubator at 37° C. for 30 minutes, it was incubated at room temperature for another 30 minutes. Add 10 μL/well of the test compound diluted with assay buffer B (HBSS, 20 mM HEPES, 0.1% BSA), and use FDSS uCELL (Hamamatsu Photonics) to measure the fluorescence value every 1 second for 1 minute, and then every 2 seconds for […]. It was measured for 1 minute and 40 seconds. The amount of fluorescence value when DMSO is added instead of the test compound is defined as 0%, and the amount of fluorescence value when orexin A (human) (Peptide Institute) with a final concentration of 10 nM is added is defined as 100%. The activity (%) of the test compound was calculated.
row,SMILES,"OX2R agonist activity (3 μM, %) [%]"
1,"Cc1cnc([C@@H]2CC(N3C[C@@H](C)[C@H](NS(C)(=O)=O)C3)=NO2)c(-c2c(F)cc(F)cc2F)c1 [Example 63, N-[(3S,4R)-4-methyl-1-{(5S)-5-[5-methyl-3-(2,4,6-trifluorophenyl)pyridin-2-yl]-4,5-dihydro-1,2-oxazol-3-yl}pyrrolidin-3-yl]methanesulfonamide]",101
2,"CS(=O)(=O)N[C@H]1CCN(C2=NOC(CF)(c3ncc(F)cc3-c3c(F)cccc3F)C2)C1 (stereo partly drawn) [Example 87, N-[(3S)-1-{5-[3-(2,6-difluorophenyl)-5-fluoropyridin-2-yl]-5-(fluoromethyl)-4,5-dihydro-1,2-oxazol-3-yl}pyrrolidin-3-yl]methanesulfonamide]",104
3,"Cc1cnc([C@@H]2CC(N3C[C@@H](NS(=O)(=O)C(F)F)C(F)(F)C3)=NO2)c(-c2c(F)cc(F)cc2F)c1 [Example 60, N-[(3R)-4,4-difluoro-1-{(5S)-5-[5-methyl-3-(2,4,6-trifluorophenyl)pyridin-2-yl]-4,5-dihydro-1,2-oxazol-3-yl}pyrrolidin-3-yl]-1,1-difluoromethanesulfonamide]",105
4,"Cc1cnc([C@@H]2CC(N3C[C@@H](F)[C@H](NS(=O)(=O)N(C)C)C3)=NO2)c(-c2c(F)cc(F)cc2F)c1 [Example 77, N′-[(3R,4R)-4-fluoro-1-{(5S)-5-[5-methyl-3-(2,4,6-trifluorophenyl)pyridin-2-yl]-4,5-dihydro-1,2-oxazol-3-yl}pyrrolidin-3-yl]-N,N-dimethylsulfuric diamide]",102
5,"CS(=O)(=O)N[C@@H]1CN(C2=NOC(c3c(F)cccc3-c3c(F)cccc3F)C2)CC1(F)F (stereo partly drawn) [Example 160, N-{(3R)-4,4-difluoro-1-[5-(2′,3,6′-trifluoro[1,1′-biphenyl]-2-yl)-4,5-dihydro-1,2-oxazol-3-yl]pyrrolidin-3-yl}methanesulfonamide]",104
6,"Cc1cnc(C2(CF)CC(N3C[C@H](F)[C@H](NS(C)(=O)=O)C3)=NO2)c(-c2c(F)cccc2F)c1 (stereo partly drawn) [Example 86, N-[(3R,4S)-1-{5-[3-(2,6-difluorophenyl)-5-methylpyridin-2-yl]-5-(fluoromethyl)-4,5-dihydro-1,2-oxazol-3-yl}-4-fluoropyrrolidin-3-yl]methanesulfonamide]",95
7,"Cc1cnc([C@@H]2CC(N3C[C@@H](NS(C)(=O)=O)C(F)(F)C3)=NO2)c(-c2c(F)ccc(F)c2F)c1 [Example 54, N-[(3R)-4,4-difluoro-1-{5-[5-methyl-3-(2,3,6-trifluorophenyl)pyridin-2-yl]-4,5-dihydro-1,2-oxazol-3-yl}pyrrolidin-3-yl]methanesulfonamide]",92
8,"Cc1cnc([C@@H]2CC(N3C[C@@H](F)[C@H](NS(C)(=O)=O)C3)=NO2)c(-c2c(F)cccc2F)c1 [Example 44, N-[(3R,4R)-1-{(5S)-5-[3-(2,6-difluorophenyl)-5-methylpyridin-2-yl]-4,5-dihydro-1,2-oxazol-3-yl}-4-fluoropyrrolidin-3-yl]methanesulfonamide]",95
9,"CS(=O)(=O)N[C@@H]1CN(C2=NOC(c3c(F)cccc3-c3c(F)cccc3F)C2)C[C@@H]1F (stereo partly drawn) [Example 141, N-{(3R,4S)-4-fluoro-1-[5-(2′,3,6′-trifluoro[1,1′-biphenyl]-2-yl)-4,5-dihydro-1,2-oxazol-3-yl]pyrrolidin-3-yl}methanesulfonamide]",97
10,"Cc1cnc(C2(C(F)F)CC(N3C[C@@H](NS(C)(=O)=O)C(F)(F)C3)=NO2)c(-c2c(F)cccc2F)c1 (stereo partly drawn) [Example 59, N-[(3R)-1-{5-(difluoromethyl)-5-[3-(2,6-difluorophenyl)-5-methylpyridin-2-yl]-4,5-dihydro-1,2-oxazol-3-yl}-4,4-difluoropyrrolidin-3-yl]methanesulfonamide]",101
11,"Cc1cnc([C@@H]2CC(N3C[C@@H](F)[C@H](NS(=O)(=O)CF)C3)=NO2)c(-c2c(F)cccc2F)c1 [Example 65, N-[(3R,4R)-1-{(5S)-5-[3-(2,6-difluorophenyl)-5-methylpyridin-2-yl]-4,5-dihydro-1,2-oxazol-3-yl}-4-fluoropyrrolidin-3-yl]-1-fluoromethanesulfonamide]",97
12,"CS(=O)(=O)N[C@@H]1CN(C2=NOC(c3ncc(Cl)cc3-c3c(F)cc(F)cc3F)C2)CC1(F)F (stereo partly drawn) [Example 39, N-[(3R)-1-{5-[5-chloro-3-(2,4,6-trifluorophenyl)pyridin-2-yl]-4,5-dihydro-1,2-oxazol-3-yl}-4,4-difluoropyrrolidin-3-yl]methanesulfonamide]",97
13,"O=S(=O)(N[C@@H]1CN(C2=NOC(c3ncc(Cl)cc3-c3c(F)cccc3F)C2)C[C@@H]1F)C1CC1 (stereo partly drawn) [Example 98, N-[(3R,4S)-1-{5-[5-chloro-3-(2,6-difluorophenyl)pyridin-2-yl]-4,5-dihydro-1,2-oxazol-3-yl}-4-fluoropyrrolidin-3-yl]cyclopropanesulfonamide]",108
14,"Cc1cc(F)c(C2CC(N3C[C@@H](NS(C)(=O)=O)C(F)(F)C3)=NO2)c(-c2ncc(F)cc2F)c1 (stereo partly drawn) [Example 154, N-[(3R)-1-{5-[2-(3,5-difluoropyridin-2-yl)-6-fluoro-4-methylphenyl]-4,5-dihydro-1,2-oxazol-3-yl}-4,4-difluoropyrrolidin-3-yl]methanesulfonamide]",102
15,"O=S(=O)(N[C@H]1CCN(C2=NOC(CF)(c3ncc(F)cc3-c3c(F)cccc3F)C2)C1)C1(F)CC1 (stereo partly drawn) [Example 89, N-[(3S)-1-{5-[3-(2,6-difluorophenyl)-5-fluoropyridin-2-yl]-5-(fluoromethyl)-4,5-dihydro-1,2-oxazol-3-yl}pyrrolidin-3-yl]-1-fluorocyclopropane-1-sulfonamide]",93
16,"CN(C)S(=O)(=O)N[C@@H]1CN(C2=NOC(c3ncc(Cl)cc3-c3c(F)cccc3F)C2)C[C@@H]1F (stereo partly drawn) [Example 121, N′-[(3R,4S)-1-{5-[5-chloro-3-(2,6-difluorophenyl)pyridin-2-yl]-4,5-dihydro-1,2-oxazol-3-yl}-4-fluoropyrrolidin-3-yl]-N,N-dimethylsulfuric diamide]",98
17,"Cc1cnc(C2(CF)CC(N3C[C@@H](NS(C)(=O)=O)C(F)(F)C3)=NO2)c(-c2c(F)cccc2F)c1 (stereo partly drawn) [Example 108, N-[(3R)-1-{5-[3-(2,6-difluorophenyl)-5-methylpyridin-2-yl]-5-(fluoromethyl)-4,5-dihydro-1,2-oxazol-3-yl}-4,4-difluoropyrrolidin-3-yl]methanesulfonamide]",105
18,"Cc1cnc([C@@H]2CC(N3C[C@H](F)[C@H](NS(=O)(=O)N(C)C)C3)=NO2)c(-c2c(F)cccc2F)c1 [Example 79, N′-[(3R,4S)-1-{(5S)-5-[3-(2,6-difluorophenyl)-5-methylpyridin-2-yl]-4,5-dihydro-1,2-oxazol-3-yl}-4-fluoropyrrolidin-3-yl]-N,N-dimethylsulfuric diamide]",100
19,"CC1(c2ncc(F)cc2-c2c(F)cccc2F)CC(N2CC[C@H](NS(C)(=O)=O)C2)=NO1 (stereo partly drawn) [Example 122, N-[(3S)-1-{5-[3-(2,6-difluorophenyl)-5-fluoropyridin-2-yl]-5-methyl-4,5-dihydro-1,2-oxazol-3-yl}pyrrolidin-3-yl]methanesulfonamide]",102
20,"Cc1cnc(C2(C(F)F)CC(N3C[C@@H](NS(C)(=O)=O)C(F)(F)C3)=NO2)c(-c2c(F)cc(F)cc2F)c1 (stereo partly drawn) [Example 14, N-[(3R)-1-{5-(difluoromethyl)-5-[5-methyl-3-(2,4,6-trifluorophenyl)pyridin-2-yl]-4,5-dihydro-1,2-oxazol-3-yl}-4,4-difluoropyrrolidin-3-yl]methanesulfonamide]",106
21,"Cc1cnc([C@@H]2CC(N3C[C@@H](NS(C)(=O)=O)[C@@](C)(F)C3)=NO2)c(-c2c(F)cccc2F)c1 (mixture of isomers) [Example 51, mixture of N-[(3R,4S)-1-{(5S)-5-[3-(2,6-difluorophenyl)-5-methylpyridin-2-yl]-4,5-dihydro-1,2-oxazol-3-yl}-4-fluoro-4-methylpyrrolidin-3-yl]methanesulfonamide and N-[(3S,4R)-1-{(5S)-5-[3-(2,6-difluorophenyl)-5-methylpyridin-2-yl]-4,5-dihydro-1,2-oxazol-3-yl}-4-fluoro-4-methylpyrrolidin-3-yl]methanesulfonamide]",99
